Data taken from patent US9428519B2, “Acylated derivative of homoharringtonine, preparation method therefor, and application thereof” (HANGZHOU BENSHENG PHARMACEUTICAL CO., LTD., priority 2011, dated 2016).
Converted amounts (≈) assume the structure as drawn.

How the values were obtained:
[1] = Body weight and toxicity in tumor-bearing BALB/c-nu nude mice; type: in vivo; conditions: for Weight (g) Final / Weight (g) Initial: 10 days
Protocol: Animal: BALB/c-nu nude mice, 8 weeks, female, purchased from Shanghai Laboratory Animal Center of Chinese Academy of Sciences, China.
BS-HH-002, wherein BS-HH-002-0.1 indicates a dosage of 0.1 mg/kg each time, BS-HH-002-0.3 indicates a dosage of 0.3 mg/kg each time, BS-HH-002-0.5 indicates a dosage of 0.5 mg/kg each time, and BS-HH-002-1.0 indicates a dosage of 1.0 mg/kg each time.
Under sterile conditions, the above tumor cells in logarithmic growth phase are collected and injected in an amount of 2×10^7/0.2 ml/nude mice (cell viability>95%) into the right subaxillary of the nude mice by subcutaneous injection, thus establishing a BALB/c-nu nude mice model bearing transplanted tumor of gastric cancer. The mice are administered on the third day after the inoculation, wherein the experimental groups are intragastrically administered in an experimentally designed amount, and the negative control group is intragastrically administered with sterile water. Administration takes place at 8:00 for one time a day, at 8:00 and 14:00 for twice a day, and at 8:00, 14:00 and 20:00 with 6-hour intervals for three times day. The administrations are successive for 10 days. The day before administration is Day 0 and the weight and tumor size are determined approximately every 5 days to produce a plot on weight and tumor growth. On Day 27, the mice are dissected and the tumors are taken out and weighed. Based on a tumor inhibition rate of zero for the control group, the tumor inhibition rate (%) after the effect of the medicament is calculated.
The values determined are presented as mean±standard error (M±SD). The experimental data for each group are analyzed by the One-way ANOVA method of SPSS 18.0 Statistical Software, and p<0.05 is deemed as having statistically significant difference.

[2] = system: RPMI8226 (multiple myeloma); assay: MTT growth inhibition of multiple myeloma cells, 72 h; type: cell-based, human
How it was run: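 Growth inhibition read by MTT after 72 h compound exposure (37 °C, 5% CO2) of 6000 RPMI8226 cells per well in 1640 medium plus 10% fetal bovine serum. Viability expressed against untreated cells (100%), from which the 72 h IC50 was derived.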

[3] = system: Hep-2 (laryngeal carcinoma); assay: MTT growth inhibition of human solid tumor cells, 72 h; type: cell-based; conditions: Homo sapiens, HEp-2
How it was run: (§1)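 First, 4000 tumour cells per well are plated in DMEM high glucose containing 10% fetal bovine serum and kept 24 h at 37° C. Next, test derivatives are mixed in at different concentrations for a further 72 h. Finally, MTT measures viable cells against an untreated 100% control.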

[4] = system: U87 MG (malignant glioma cell); assay: as above; type: cell-based; conditions: Homo sapiens, U-87 MG
How it was run: as §1

[5] = system: CaES-17 (esophageal cancer cell); assay: as above; type: cell-based; conditions: Homo sapiens, CaEs17
How it was run: as §1

[6] = system: Huh7 (human liver cancer cell); assay: as above; type: cell-based; conditions: Homo sapiens, Huh-7
How it was run: as §1

[7] = system: A549 (human lung cancer); assay: as above; type: cell-based; conditions: Homo sapiens, A549
How it was run: as §1

[8] = system: RKO (human colon adenocarcinoma cell); assay: as above; type: cell-based
How it was run: as §1

[9] = system: MG63 (osteosarcoma); assay: as above; type: cell-based
How it was run: as §1

[10] = system: Becap37 (human breast cancer cell); assay: as above; type: cell-based; conditions: Homo sapiens
How it was run: as §1

[11] = system: Hela (human cervical cancer cell); assay: as above; type: cell-based
How it was run: as §1

[12] = system: SK-OV-3 (ovarian cancer cell); assay: as above; type: cell-based
How it was run: as §1

[13] = system: MGC 803 (human gastric cancer cell); assay: as above; type: cell-based; conditions: Homo sapiens, MGC-803
How it was run: as §1

[14] = 0.1 mg/kg/time, 1 time/day intragastric
[15] = 0.1 mg/kg/time, 2 times/day intragastric
[16] = 0.1 mg/kg/time, 3 times/day intragastric
[17] = 0.3 mg/kg/time, 1 time/day intragastric
[18] = 0.5 mg/kg/time, 1 time/day intragastric
[19] = 0.5 mg/kg/time, 2 times/day intragastric
[20] = 0.5 mg/kg/time, 3 times/day intragastric
[21] = 1.0 mg/kg/time, 1 time/day intragastric
[22] = 1.0 mg/kg/time, 3 times/day intragastric

COC(=O)C[C@](O)(CCCC(C)(C)OC(C)=O)C(=O)O[C@@H]1C(OC)=C[C@]23CCCN2CCc2cc4c(cc2[C@H]13)OCO4 [BS-HH-002, 6-acetylhomoharringtonine]
Weight (g) Final [1, 14]: 27.18 ± 3.62 g
Weight (g) Initial [1, 14]: 18.88 ± 0.56 g
Weight (g) Final [1, 15]: 25.63 ± 1.06 g
Weight (g) Initial [1, 15]: 21.35 ± 0.34 g
Weight (g) Final [1, 16]: 28.50 ± 2.83 g
Weight (g) Initial [1, 16]: 24.58 ± 0.39 g
Weight (g) Final [1, 17]: 24.30 ± 1.38 g
Weight (g) Initial [1, 17]: 18.98 ± 0.51 g
Weight (g) Final [1, 18]: 25.78 ± 1.15 g
Weight (g) Initial [1, 18]: 20.10 ± 0.22 g
Weight (g) Final [1, 19]: 26.68 ± 1.42 g
Weight (g) Initial [1, 19]: 22.28 ± 0.43 g
Weight (g) Final [1, 20]: 26.33 ± 2.76 g
Weight (g) Initial [1, 20]: 23.50 ± 0.37 g
Weight (g) Final [1, 21]: 25.95 ± 0.94 g
Weight (g) Initial [1, 21]: 20.45 ± 0.76 g
Weight (g) Final [1, 22]: 29.98 ± 1.32 g
Weight (g) Initial [1, 22]: 26.98 ± 0.75 g
toxic and side effect ([1]; all dosages 0.1-1.0 mg/kg): none of the dosages causes obvious toxic and side effect
animal deaths until dissection ([1]; all groups, until Day 27): none of the animals has died
anti-RPMI8226 (multiple myeloma) effectiveness [2]: particularly effective
IC50 ([2]; Homo sapiens, RPMI-8226, MTT): 0.003 µg/mL (≈ 0.0051 µM)
IC90 ([2]; Homo sapiens, RPMI-8226, MTT): 0.018 µg/mL (≈ 0.0306 µM)
IC50 [3]: 0.0037 µg/mL (≈ 0.0063 µM)
IC90 [3]: > 16 µg/mL
IC50 [4]: 0.002 µg/mL (≈ 0.0034 µM)
IC90 [4]: 0.012 µg/mL (≈ 0.0204 µM)
IC50 [5]: 0.02 µg/mL (≈ 0.034 µM)
IC90 [5]: > 16 µg/mL
IC50 [6]: 0.0021 µg/mL (≈ 0.00357 µM)
IC90 [6]: 0.018 µg/mL (≈ 0.0306 µM)
IC50 [7]: 0.013 µg/mL (≈ 0.0221 µM)
IC90 [7]: > 16 µg/mL
IC50 ([8]; Homo sapiens, MTT): 0.002 µg/mL (≈ 0.0034 µM)
IC90 ([8]; Homo sapiens, MTT): 0.01 µg/mL (≈ 0.017 µM)
anti-RKO effect relative to homoharringtonine ([8]; vs HHT): substantially superior
IC50 ([9]; Homo sapiens, MG-63, MTT): 0.006 µg/mL (≈ 0.0102 µM)
IC90 ([9]; Homo sapiens, MG-63, MTT): 0.42 µg/mL (≈ 0.715 µM)
anti-MG63 effect relative to homoharringtonine ([9]; vs HHT): substantially superior
IC50 [10]: 0.005 µg/mL (≈ 0.00851 µM)
IC90 [10]: 16 µg/mL (≈ 27.2 µM)
IC50 ([11]; Homo sapiens, HeLa, MTT): 0.0077 µg/mL (≈ 0.0131 µM)
IC90 ([11]; Homo sapiens, HeLa, MTT): 16 µg/mL (≈ 27.2 µM)
anti-Hela effect relative to homoharringtonine ([11]; vs HHT): more than 2.5 fold
IC50 ([12]; Homo sapiens, SK-OV-3, MTT): 0.05 µg/mL (≈ 0.0851 µM)
IC90 ([12]; Homo sapiens, SK-OV-3, MTT): > 16 µg/mL
anti-SK-OV-3 effect relative to homoharringtonine ([12]; vs HHT): 2 fold
IC50 [13]: 0.008 µg/mL (≈ 0.0136 µM)
IC90 [13]: 0.056 µg/mL (≈ 0.0953 µM)
